# According to patent publication US9532983B2, “Benzofuran compounds, compositions, kits and/or methods thereof” (Savannah State University, priority 2013, dated 2017):
# Entries after “also recorded” stand apart in the source; their conditions may differ.
# Experiments:
# [1] = Cell viability assay (MTT) in MA-10 cells; type: cell-based, mouse; details: mouse, MA-10 Leydig cells, read-out: decrease in cell viability
# Protocol: (§1) Mouse Leydig cell line (MA-10) was grown in Waymouth media containing 15% horse serum, 5% fetal bovine serum, and 1× gentamycin, which was replaced with […] G418 (geneticin) for VDAC1 knockdown (ΔVDAC1) MA10 cells. Cells were maintained at 37° C. in a humidified incubator under 5% CO2. To isolate mitochondria, cells were removed from tissue culture plates by gentle scrapping in phosphate-buffered saline at room temperature, incubated in hypotonic buffer (10 mM HEPES, pH 7.4) for 30 to 40 min, and mitochondria were isolated following readily available procedures. The mitochondrial preparation was verified by Western blotting with the cytochrome P450 SCC enzyme (Corgen, Tapai, Taiwan) and calnexin antibodies (Santa Cruz Biotechnology, Inc., Santa Cruz, Calif.).
# Stock solutions (1 mM) of the ligands were made in 1× phosphate buffered saline, filter-sterilized, and then further diluted up to 1 μM with serum-free medium. Cell viability was determined by the 3-[4,5-dimethylthiazol-2yl]-2,5-diphenyltetrazolium bromide assay using a commercially available kit following the manufacturer's instructions (Promega, Madison, Wis.). MA-10 cells were plated in a 96-well plate at an initial density of 4×10^3 cells per well for 24 h at 37° C. in 5% CO2 atm. After 24 h of serum starvation, the culture media were changed to serum-free media containing 1, 5, 10, 50, and 100 nM concentration for each KSCM ligand. Next, the cells were incubated for 2 to 3 h with 0.5 mg/ml of 3-[4,5-dimethylthiazol-2yl]-2,5-diphenyltetrazolium bromide reagent and lysed with dimethyl sulfoxide, and the absorbance was measured at 550 nm (FlexStation 3; Molecular Devices, Sunnyvale, Calif.).
# [2] = biological target: T1, 5HT3 (Homo sapiens, UniProt P46098); assay: Primary binding assay at non-sigma receptors: 5HT3; details: 10 μM (final) assay concentration
# T1 construct: expressed in transfected cells
# T1 sequence (P46098 24-478): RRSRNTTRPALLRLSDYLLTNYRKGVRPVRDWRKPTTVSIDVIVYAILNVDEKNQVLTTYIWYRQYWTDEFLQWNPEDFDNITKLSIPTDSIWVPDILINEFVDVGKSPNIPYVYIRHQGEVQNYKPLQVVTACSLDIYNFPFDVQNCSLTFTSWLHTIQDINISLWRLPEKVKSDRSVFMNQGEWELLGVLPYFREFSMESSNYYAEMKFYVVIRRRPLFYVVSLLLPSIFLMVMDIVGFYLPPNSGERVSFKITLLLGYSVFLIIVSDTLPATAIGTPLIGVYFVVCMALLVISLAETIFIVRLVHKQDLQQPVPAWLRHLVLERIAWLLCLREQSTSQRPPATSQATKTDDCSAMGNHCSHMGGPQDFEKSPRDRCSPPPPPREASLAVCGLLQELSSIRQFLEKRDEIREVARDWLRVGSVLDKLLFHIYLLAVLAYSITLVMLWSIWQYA
# Protocol: (§2) Initial primary binding screening assays were performed using a 50 μM (initial)−10 μM (final) assay concentration of reference and test compounds.
# [3] = tested on: StAR; assay: Western blot, expression of StAR in MA-10 cells; type: cell-based, mouse
# Protocol: as §1
# Protein (12.5 μg) was separated by 15% SDS-polyacrylamide gel electrophoresis and transferred to a polyvinylidinedifluoride membrane (Millipore Corporation, Billerica, Mass.). The membrane was blocked with 3% nonfat dry milk for 45 min, probed overnight with the primary antibodies, and then incubated with […] goat anti-rabbit or anti mouse IgG (Thermo Fisher Scientific, Waltham, Mass.). Signals were developed with chemiluminescent reagent (Thermo Fisher Scientific). For loading control of all Western blots, the membrane was stained with β-actin antibody, which was previously independently stained with StAR or 3-β-hydroxysteroid dehydrogenase (3βHSD2) or VDAC1 and VDAC2 antiserum. The band intensity was determined by using Image Quant 5.2 (Phosphorimager; GE Healthcare, Chalfont St. Giles, Buckinghamshire, UK). Densitometric calculation may reflect the ratio of σ1 or VDAC2 and β-actin following an established procedure that is readily available.
# The role of KSCM ligands on the expression of StAR in MA-10 cells was evaluated. In all the cases studied, both the 37-kDa unimported and the 30-kDa mitochondrial-imported, mature protein, were observed but not the 32-kDa transient intermediate protein. The same membrane was probed first with StAR antibody and then with β-actin antibody independently. […] Coimmunoprecipitation experiments were performed to determine whether there was a direct interaction between σ1 receptor and StAR or VDAC2. […] StAR is a 37-kDa protein and thus it is higher than the 28-kDa σ1 (FIG. 5A), confirming that StAR interaction with the σ1 receptor.
# [4] = biological target: T2, M4 (Homo sapiens, UniProt P08173); assay: Primary binding assay at non-sigma receptors: M4; details: 10 μM (final) assay concentration
# T2 construct: expressed in transfected cells
# T2 sequence (P08173 1-479): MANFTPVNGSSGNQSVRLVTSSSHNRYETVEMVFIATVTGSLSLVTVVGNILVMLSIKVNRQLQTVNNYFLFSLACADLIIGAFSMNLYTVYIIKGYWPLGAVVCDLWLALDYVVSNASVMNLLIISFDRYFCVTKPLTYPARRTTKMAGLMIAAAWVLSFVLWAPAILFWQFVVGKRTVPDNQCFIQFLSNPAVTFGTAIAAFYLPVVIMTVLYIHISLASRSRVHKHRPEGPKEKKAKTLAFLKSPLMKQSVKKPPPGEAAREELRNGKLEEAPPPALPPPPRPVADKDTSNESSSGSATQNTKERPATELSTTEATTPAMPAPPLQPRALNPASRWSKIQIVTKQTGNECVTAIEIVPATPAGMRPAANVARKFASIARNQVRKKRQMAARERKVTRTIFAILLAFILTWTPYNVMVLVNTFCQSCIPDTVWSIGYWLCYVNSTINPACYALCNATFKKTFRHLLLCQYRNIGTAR
# Protocol: as §2
# [5] = biological target: T3, 5-HT2A (Homo sapiens, UniProt P28223); assay: Primary binding assay at non-sigma receptors: 5-HT2A; details: 10 μM (final) assay concentration
# T3 construct: expressed in transfected cells
# T3 sequence (P28223 whole entry): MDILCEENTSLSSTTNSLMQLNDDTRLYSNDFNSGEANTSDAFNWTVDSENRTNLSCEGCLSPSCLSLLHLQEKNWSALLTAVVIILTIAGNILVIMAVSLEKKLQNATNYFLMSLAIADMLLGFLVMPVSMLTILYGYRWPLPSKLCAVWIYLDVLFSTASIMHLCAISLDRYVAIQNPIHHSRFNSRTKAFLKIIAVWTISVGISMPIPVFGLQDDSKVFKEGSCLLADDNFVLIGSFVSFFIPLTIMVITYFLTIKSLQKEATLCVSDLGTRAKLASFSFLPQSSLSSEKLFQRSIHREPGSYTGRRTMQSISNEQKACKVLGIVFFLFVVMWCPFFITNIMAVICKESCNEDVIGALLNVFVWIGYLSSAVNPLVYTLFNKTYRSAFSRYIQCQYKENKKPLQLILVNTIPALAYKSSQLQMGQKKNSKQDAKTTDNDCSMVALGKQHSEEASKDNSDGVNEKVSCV
# Protocol: as §2
Compound,"cytotoxicity at 24 h, 1 nM [1]","cytotoxicity at 24 h, 100 nM [1]",inhibition at 10 µM [2],expression of imported 30-kDa StAR (in words) [3],expression of unimported 37-kDa StAR (in words) [3],inhibition at 10 µM [4],inhibition at 10 µM [5],cytotoxicity at 24 h ([1]; 1-5 nM)
"COc1cc2oc(C(=O)N(CCCN3CCCCC3)c3ccccc3)c(C)c2cc1OC [KSCM-1, 5,6-Dimethoxy-3-methyl-N-phenyl-N-(3-(piperidin-1-yl)propyl)benzofuran-2-carboxamide]",3.5%,16%,64.2%,unaffected,increased (and/or stabilized); also recorded: stabilizes the expression of unimported StAR,54.4%,76.6%,
"Cc1c(C(=O)N(CCCN2CCCCC2)c2ccccc2)oc2ccccc12 [KSCM-5, 3-Methyl-N-phenyl-N-(3-(piperidin-1-yl)propyl)benzofuran-2-carboxamide]",28%,74%,2.9%,unchanged,not and unchanged,43.1%,18.1%,
"COc1ccc2c(C)c(C(=O)N(CCCN3CCCCC3)c3ccccc3)oc2c1 [KSCM-11, 6-Methoxy-3-methyl-N-phenyl-N-(3-(piperidin-1-yl)propyl)benzofuran-2-carboxamide]",,,7.3%,unchanged,not and unchanged,68.4%,61.2%,3.3%
